From patent US10072014B2 (Janssen Pharmaceutica NV, priority 2014, dated 2018)

biological target: T1, human mGlu2 receptor (Homo sapiens, UniProt Q14416); assay: [35S]GTPγS binding assay, negative allosteric modulation of mGluR2; type: biochemical; details: maximal % inhibition relative to the control glutamate response (EC80 glutamate); read-out: GTPγS-hmGluR2 anGT Emax
T1 construct: expressed in transfected cells; host or cells: CHO cells
Description: The compounds provided in the present invention are negative allosteric modulators of mGluR2. These compounds appear to inhibit glutamate responses by binding to an allosteric site other than the glutamate binding site. The response of mGluR2 to a concentration of glutamate is decreased when compounds of Formula (I) are present. Compounds of Formula (I) are expected to have their effect substantially at mGluR2 by virtue of their ability to reduce the function of the receptor. The effects of negative allosteric modulators tested at mGluR2 using the [^35S]GTPγS binding assay method described below and which is suitable for the identification of such compounds, and more particularly the compounds according to Formula (I), are shown in Table 7.
1) [^35S]GTPγS Binding Assay
The [^35S]GTPγS binding assay is a functional membrane-based assay used to study G-protein coupled receptor (GPCR) function whereby incorporation of a non-hydrolysable form of GTP, [^35S]GTPγS (guanosine 5′-triphosphate, labelled with […] ^35S), is measured. The G-protein a subunit catalyzes the exchange of guanosine 5′-diphosphate (GDP) by guanosine triphosphate (GTP) and on activation of the GPCR by an agonist, [^35S]GTPγS, becomes incorporated and cannot be cleaved to continue the exchange cycle (Harper (1998) Current Protocols in Pharmacology 2.6.1-10, John Wiley & Sons, Inc.). […] Here we describe the use of the [^35S]GTPγS binding assay using membranes from cells transfected with the human mGlu2 receptor and adapted from Schaffhauser et al. (Molecular Pharmacology, 2003, […]) for the detection of the negative allosteric modulation (NAM) properties of the compounds of this invention.
CHO-cells were cultured to pre-confluence and stimulated with 5 mM butyrate for 24 h. Cells were then collected by scraping in PBS and cell suspension was centrifuged (10 min at 4000 RPM in benchtop centrifuge). Supernatant was discarded and pellet gently resuspended in 50 mM Tris-HCl, pH 7.4 by mixing with an Ultra Turrax homogenizer. The suspension was centrifuged at 12,400 RPM (Sorvall F14S-6x250Y) for 10 minutes and the supernatant discarded. The pellet was homogenized in 5 mM Tris-HCl, pH 7.4 using an Ultra Turrax homogenizer and centrifuged again (13,000 RPM, 20 min, 4° C.). The final pellet was resuspended in 50 mM Tris-HCl, pH 7.4 and stored at −80° C. in appropriate aliquots before use. Protein concentration was determined by the Bradford method (Bio-Rad, USA) with bovine serum albumin as standard.
[^35S]GTPγS Binding Assay
Measurement of mGluR2 negative allosteric modulatory activity of test compounds was performed as follows. Test compounds and glutamate were diluted in assay buffer containing 10 mM HEPES acid, 10 mM HEPES salt, pH 7.4, 100 mM NaCl, 3 mM MgCl2 and 10 μM GDP. Human mGlu2 receptor-containing membranes were thawed on ice and diluted in assay buffer supplemented with 18 μg/ml saponin. Membranes were pre-incubated with compound together with a predefined (˜EC80) concentration of glutamate (60 μM) for 30 min at 30° C. After addition of [^35S]GTPγS (f.c. 0.1 nM), assay mixtures were shaken briefly and further incubated to allow [^35S]GTPγS incorporation on activation (30 minutes, 30° C.). Final assay mixtures contained 7 μg of membrane protein in 10 mM HEPES acid, 10 mM HEPES salt, pH 7.4, 100 mM NaCl, 3 mM MgCl2, 10 μM GDP and 10 μg/ml saponin. Total reaction volume was 200 μl. Reactions were terminated by rapid filtration through Unifilter-96 GF/B plates (Perkin Elmer, Massachusetts, USA) using a 96-well filtermate universal harvester. Filters were washed 6 times with ice-cold 10 mM NaH2PO4/10 mM Na2HPO4, pH 7.4. Filters were then air-dried, and 30 μl of liquid scintillation cocktail (Microscint-O) was added to each well. Membrane-bound radioactivity was counted in a Topcount.
The concentration-response curves of representative compounds of the present invention were generated using the Lexis software interface (developed at J&J). […]

T1 sequence (Q14416 19-872): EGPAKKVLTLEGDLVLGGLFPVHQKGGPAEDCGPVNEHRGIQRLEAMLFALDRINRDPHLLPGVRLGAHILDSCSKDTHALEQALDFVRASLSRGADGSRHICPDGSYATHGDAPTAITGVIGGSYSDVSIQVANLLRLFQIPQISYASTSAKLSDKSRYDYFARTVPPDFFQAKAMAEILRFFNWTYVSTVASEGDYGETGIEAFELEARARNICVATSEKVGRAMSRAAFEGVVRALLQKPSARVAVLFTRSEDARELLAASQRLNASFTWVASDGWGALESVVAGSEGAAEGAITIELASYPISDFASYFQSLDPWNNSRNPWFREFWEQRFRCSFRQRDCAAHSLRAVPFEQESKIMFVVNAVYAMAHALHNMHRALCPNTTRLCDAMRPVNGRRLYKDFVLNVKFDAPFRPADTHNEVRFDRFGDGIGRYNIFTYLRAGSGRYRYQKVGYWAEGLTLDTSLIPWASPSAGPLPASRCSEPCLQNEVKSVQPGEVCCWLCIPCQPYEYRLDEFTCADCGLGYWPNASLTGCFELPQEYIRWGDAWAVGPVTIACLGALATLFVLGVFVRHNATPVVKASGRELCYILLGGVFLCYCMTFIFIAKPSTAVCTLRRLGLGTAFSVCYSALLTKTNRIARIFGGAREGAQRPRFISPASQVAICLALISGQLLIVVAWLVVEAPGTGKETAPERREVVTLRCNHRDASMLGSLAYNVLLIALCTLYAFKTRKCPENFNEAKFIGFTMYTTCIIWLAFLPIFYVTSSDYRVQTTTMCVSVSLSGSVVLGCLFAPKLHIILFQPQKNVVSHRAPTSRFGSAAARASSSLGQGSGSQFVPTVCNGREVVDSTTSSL

Row | Compound | Emax
1 | C[C@H]1CN(c2ccc(C(F)(F)F)cc2)C(=O)c2c(-c3c[nH]c(-c4ccc(N)nc4)n3)cnn21 [Compound 11] | 109%
2 | Cc1cc(N2C[C@H](C)n3ncc(-c4c[nH]c(-c5ccccn5)n4)c3C2=O)ccc1C(F)(F)F [Compound 22] | 110%
3 | Cc1cc(N2C[C@H](C)n3ncc(-c4[nH]c(C5CC5)nc4C)c3C2=O)ccc1C(F)(F)F [Compound 21] | 108%
4 | Cc1[nH]c(-c2ccc(N)nc2)nc1-c1cnn2c1C(=O)N(c1ccc(C(F)(F)F)c(Cl)c1)C[C@@H]2C [Compound 34] | 109%
5 | Cc1[nH]c(-c2cccnc2)nc1-c1cnn2c1C(=O)N(c1ccc(C(F)(F)F)c(Cl)c1)C[C@@H]2C [Compound 32] | 109%
6 | Cc1nc(C2CC2)[nH]c1-c1cnn2c1C(=O)N(c1ccc(C(F)(F)F)c(Cl)c1)C[C@@H]2C [Compound 28] | 111%
7 | C[C@H]1CN(c2ccc(Cl)c(Cl)c2)C(=O)c2c(-c3c[nH]c(-c4ccccn4)n3)cnn21 [Compound 18] | 110%

same assay, conditions: membranes from CHO cells transfected with human mGlu2 receptor; glutamate 60 μM (~EC80); read-out: GTPγS-hmGluR2 anGT pIC50 (converted)

Row | Compound | IC50
8 | C[C@H]1CN(c2ccc(C(F)(F)F)cc2)C(=O)c2c(-c3c[nH]c(-c4ccc(N)nc4)n3)cnn21 [Compound 11] | 55 nM
9 | Cc1cc(N2C[C@H](C)n3ncc(-c4c[nH]c(-c5ccccn5)n4)c3C2=O)ccc1C(F)(F)F [Compound 22] | 16.2 nM
10 | Cc1cc(N2C[C@H](C)n3ncc(-c4[nH]c(C5CC5)nc4C)c3C2=O)ccc1C(F)(F)F [Compound 21] | 5.75 nM
11 | Cc1[nH]c(-c2ccc(N)nc2)nc1-c1cnn2c1C(=O)N(c1ccc(C(F)(F)F)c(Cl)c1)C[C@@H]2C [Compound 34] | 30.9 nM
12 | Cc1[nH]c(-c2cccnc2)nc1-c1cnn2c1C(=O)N(c1ccc(C(F)(F)F)c(Cl)c1)C[C@@H]2C [Compound 32] | 15.5 nM
13 | Cc1nc(C2CC2)[nH]c1-c1cnn2c1C(=O)N(c1ccc(C(F)(F)F)c(Cl)c1)C[C@@H]2C [Compound 28] | 3.72 nM
14 | C[C@H]1CN(c2ccc(Cl)c(Cl)c2)C(=O)c2c(-c3c[nH]c(-c4ccccn4)n3)cnn21 [Compound 18] | 9.12 nM

tested on: rats; assay: Reversal of the effect of the mGluR2 PAM JNJ-42153605-induced inhibition of scopolamine-induced hyperlocomotion; type: in vivo; details: Rattus norvegicus, PO, criterion for reversal: total distance >1500 cm, read-out: ED50 SCOP JNJ-42153605
Description: 2) Reversal of the Effect of the mGluR2 PAM JNJ-42153605-induced Inhibition of Scopolamine-induced Hyperlocomotion Apparatus
Motor activity was measured in microprocessor-based motor activity arenas (closed gray PVC cylinders with a height of 39 cm and a diameter of 31 cm). Each arena was placed on an infrared LED (8×8 LEDs) lit box (white PVC squared box; 40×40 cm^2; height 12.5 cm. An infrared-sensitive tube camera and a white light source were mounted to the ceiling above the observation chamber to track the animal. The total distance traveled (cm) was recorded and analyzed using the Noldus Ethovision XT Video Tracking System (Version 7.0.418; Noldus, Wageningen, The Netherlands). The intensity of the light within the activity cages (measured in the centre at the level of the floor) ranged between 4 and 8 LUX.
The rats were pretreated with test compound or vehicle at 60 min before the start of the activity recordings and placed into individual cages. The rats were challenged with JNJ-42153605 (3-(cyclopropylmethyl)-7-(4-phenylpiperidin-1-yl)-8-(trifluoromethyl)-[1,2,4]triazolo[4,3-a]pyridine; WO2010/130424; Cid et al. J. Med. Chem. 2012, 55, 8770-8789) (20 mg/kg, i.v.) 30 min before the start of the activity recording combined with scopolamine (0.16 mg/kg, i.v.) just before the start of the activity measurements. Immediately after the injection of scopolamine, the rats were placed into the activity monitors and total distance traveled over the first 30 min was measured.
Solvent-pretreated Control Rats.
Animals receiving the combination of JNJ-42153605 and scopolamine (n=433) almost always traveled a distance of less than 1500 cm (<1500 cm) (only 2.5% of the control rats traveled a distance of more than 1500 cm (>1500 cm)). On the other hand, animals challenged with scopolamine alone (n=215) always traveled a total distance of more than 1500 cm (>1500 cm) and almost always (in 95.8% of the rats) a distance of more than 4400 cm (>4400 cm). […] For reversal of the inhibitory effect of JNJ-42153605 on the scopolamine-induced hyperlocomotion, the following all-or-none criteria were adopted: (1) reversal: total distance>1500 cm.

Row | Compound | ED50
15 | C[C@H]1CN(c2ccc(C(F)(F)F)cc2)C(=O)c2c(-c3c[nH]c(-c4ccc(N)nc4)n3)cnn21 [Compound 11] | > 0.63 mg/kg
16 | Cc1cc(N2C[C@H](C)n3ncc(-c4c[nH]c(-c5ccccn5)n4)c3C2=O)ccc1C(F)(F)F [Compound 22] | > 0.63 mg/kg
17 | Cc1cc(N2C[C@H](C)n3ncc(-c4[nH]c(C5CC5)nc4C)c3C2=O)ccc1C(F)(F)F [Compound 21] | > 0.63 mg/kg
18 | Cc1[nH]c(-c2ccc(N)nc2)nc1-c1cnn2c1C(=O)N(c1ccc(C(F)(F)F)c(Cl)c1)C[C@@H]2C [Compound 34] | > 0.63 mg/kg
19 | Cc1[nH]c(-c2cccnc2)nc1-c1cnn2c1C(=O)N(c1ccc(C(F)(F)F)c(Cl)c1)C[C@@H]2C [Compound 32] | > 0.63 mg/kg
20 | Cc1nc(C2CC2)[nH]c1-c1cnn2c1C(=O)N(c1ccc(C(F)(F)F)c(Cl)c1)C[C@@H]2C [Compound 28] | > 0.63 mg/kg
21 | C[C@H]1CN(c2ccc(Cl)c(Cl)c2)C(=O)c2c(-c3c[nH]c(-c4ccccn4)n3)cnn21 [Compound 18] | > 0.63 mg/kg

tested on: not given; assay: not given; details: not given

Row | Compound | melting point
22 | C[C@H]1CN(c2ccc(C(F)(F)F)cc2)C(=O)c2c(-c3c[nH]c(-c4ccc(N)nc4)n3)cnn21 [Compound 11] | 276.61 °C
23 | Cc1cc(N2C[C@H](C)n3ncc(-c4c[nH]c(-c5ccccn5)n4)c3C2=O)ccc1C(F)(F)F [Compound 22] | 140.5 °C
24 | Cc1cc(N2C[C@H](C)n3ncc(-c4[nH]c(C5CC5)nc4C)c3C2=O)ccc1C(F)(F)F [Compound 21] | 146.2 °C
25 | Cc1[nH]c(-c2ccc(N)nc2)nc1-c1cnn2c1C(=O)N(c1ccc(C(F)(F)F)c(Cl)c1)C[C@@H]2C [Compound 34] | 280.85 °C
26 | Cc1[nH]c(-c2cccnc2)nc1-c1cnn2c1C(=O)N(c1ccc(C(F)(F)F)c(Cl)c1)C[C@@H]2C [Compound 32] | 269.39 °C
27 | Cc1nc(C2CC2)[nH]c1-c1cnn2c1C(=O)N(c1ccc(C(F)(F)F)c(Cl)c1)C[C@@H]2C [Compound 28] | 158.23 °C
28 | C[C@H]1CN(c2ccc(Cl)c(Cl)c2)C(=O)c2c(-c3c[nH]c(-c4ccccn4)n3)cnn21 [Compound 18] | 278.31 °C
